Our source for the remaining activity values is paper PMC9097471, “Development of Selective Phosphatidylinositol 5-Phosphate 4-Kinase γ Inhibitors with a Non-ATP-competitive, Allosteric Binding Mode” (Journal of Medicinal Chemistry, 2022).

Some targets named below: EIF2AK3 (Homo sapiens, UniProt Q9NZJ5); CK1δ (Homo sapiens, UniProt P48730); HIPK2 (Homo sapiens, UniProt Q9H2X6); CDK2-Cyclin A (Homo sapiens, UniProt P24941); TBK1 (Homo sapiens, UniProt Q9UHD2); CHK1 (Homo sapiens, UniProt O14757); PKBb (Homo sapiens, UniProt P31751); GCK (Homo sapiens, UniProt Q12851); Aurora B (Homo sapiens, UniProt Q96GD4); PIM3 (Homo sapiens, UniProt Q86V86); EPH-B4 (Homo sapiens, UniProt P54760); ERK2 (Homo sapiens, UniProt P28482); HIPK3 (Homo sapiens, UniProt Q9H422); JNK1 (Homo sapiens, UniProt P45983); MAPKAP-K2 (Homo sapiens, UniProt P49137); PKCγ (Homo sapiens, UniProt P05129); EPH-B1 (Homo sapiens, UniProt P54762); MAP4K5 (Homo sapiens, UniProt Q9Y4K4); ULK1 (Homo sapiens, UniProt O75385); EPH-A2 (Homo sapiens, UniProt P29317).

Common to all, as to experiment: Kinase panel, radiometric 33P filter binding
Conditions in all cases: read-out: % activity remaining

As usually defined, the remaining activity is the signal under treatment as a percentage of the control signal.

Sequence of MAP4K5 (Q9Y4K4 whole entry): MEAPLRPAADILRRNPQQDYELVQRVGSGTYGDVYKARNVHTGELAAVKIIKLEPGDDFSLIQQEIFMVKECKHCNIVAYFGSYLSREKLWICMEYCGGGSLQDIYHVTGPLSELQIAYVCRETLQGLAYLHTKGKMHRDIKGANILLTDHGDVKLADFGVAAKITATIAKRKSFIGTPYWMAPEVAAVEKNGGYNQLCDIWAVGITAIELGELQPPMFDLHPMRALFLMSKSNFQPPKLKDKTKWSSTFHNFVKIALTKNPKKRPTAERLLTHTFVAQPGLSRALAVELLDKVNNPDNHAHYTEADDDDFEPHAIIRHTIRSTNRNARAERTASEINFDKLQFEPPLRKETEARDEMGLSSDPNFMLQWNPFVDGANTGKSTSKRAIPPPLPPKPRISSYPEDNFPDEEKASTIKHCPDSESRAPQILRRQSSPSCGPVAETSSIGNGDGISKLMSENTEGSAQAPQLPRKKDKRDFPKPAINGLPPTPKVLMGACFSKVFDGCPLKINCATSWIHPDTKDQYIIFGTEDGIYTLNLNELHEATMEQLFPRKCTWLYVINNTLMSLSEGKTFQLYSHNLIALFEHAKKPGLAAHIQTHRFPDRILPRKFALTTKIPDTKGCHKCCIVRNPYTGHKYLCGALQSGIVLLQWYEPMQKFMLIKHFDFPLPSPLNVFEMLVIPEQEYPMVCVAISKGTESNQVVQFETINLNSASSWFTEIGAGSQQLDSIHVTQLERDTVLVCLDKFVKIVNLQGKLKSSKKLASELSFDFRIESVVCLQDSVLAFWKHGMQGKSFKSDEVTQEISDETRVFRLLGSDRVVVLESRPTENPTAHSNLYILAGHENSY
Sequence of GCK (Q12851 whole entry): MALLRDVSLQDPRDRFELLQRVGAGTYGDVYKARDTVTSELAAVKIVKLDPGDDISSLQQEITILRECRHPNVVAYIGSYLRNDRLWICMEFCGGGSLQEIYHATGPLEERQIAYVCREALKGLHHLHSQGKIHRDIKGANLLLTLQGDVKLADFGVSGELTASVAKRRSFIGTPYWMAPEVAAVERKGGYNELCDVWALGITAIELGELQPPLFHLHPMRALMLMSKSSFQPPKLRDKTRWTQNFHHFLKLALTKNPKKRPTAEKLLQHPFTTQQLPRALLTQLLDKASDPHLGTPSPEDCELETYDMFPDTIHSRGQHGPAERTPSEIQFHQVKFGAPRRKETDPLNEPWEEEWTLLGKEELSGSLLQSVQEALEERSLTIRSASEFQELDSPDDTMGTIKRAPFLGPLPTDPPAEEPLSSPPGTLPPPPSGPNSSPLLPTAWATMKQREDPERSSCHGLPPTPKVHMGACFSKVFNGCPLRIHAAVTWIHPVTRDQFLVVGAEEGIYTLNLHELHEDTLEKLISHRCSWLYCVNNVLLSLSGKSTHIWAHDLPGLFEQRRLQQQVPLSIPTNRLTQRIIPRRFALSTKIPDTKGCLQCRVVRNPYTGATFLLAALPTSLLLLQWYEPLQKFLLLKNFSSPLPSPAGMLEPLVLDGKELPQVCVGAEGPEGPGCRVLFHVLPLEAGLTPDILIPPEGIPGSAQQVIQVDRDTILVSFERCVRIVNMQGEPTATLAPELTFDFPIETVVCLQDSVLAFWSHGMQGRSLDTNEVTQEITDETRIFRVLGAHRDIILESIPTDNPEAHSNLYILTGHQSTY
Sequence of EIF2AK3 (Q9NZJ5 30-1116): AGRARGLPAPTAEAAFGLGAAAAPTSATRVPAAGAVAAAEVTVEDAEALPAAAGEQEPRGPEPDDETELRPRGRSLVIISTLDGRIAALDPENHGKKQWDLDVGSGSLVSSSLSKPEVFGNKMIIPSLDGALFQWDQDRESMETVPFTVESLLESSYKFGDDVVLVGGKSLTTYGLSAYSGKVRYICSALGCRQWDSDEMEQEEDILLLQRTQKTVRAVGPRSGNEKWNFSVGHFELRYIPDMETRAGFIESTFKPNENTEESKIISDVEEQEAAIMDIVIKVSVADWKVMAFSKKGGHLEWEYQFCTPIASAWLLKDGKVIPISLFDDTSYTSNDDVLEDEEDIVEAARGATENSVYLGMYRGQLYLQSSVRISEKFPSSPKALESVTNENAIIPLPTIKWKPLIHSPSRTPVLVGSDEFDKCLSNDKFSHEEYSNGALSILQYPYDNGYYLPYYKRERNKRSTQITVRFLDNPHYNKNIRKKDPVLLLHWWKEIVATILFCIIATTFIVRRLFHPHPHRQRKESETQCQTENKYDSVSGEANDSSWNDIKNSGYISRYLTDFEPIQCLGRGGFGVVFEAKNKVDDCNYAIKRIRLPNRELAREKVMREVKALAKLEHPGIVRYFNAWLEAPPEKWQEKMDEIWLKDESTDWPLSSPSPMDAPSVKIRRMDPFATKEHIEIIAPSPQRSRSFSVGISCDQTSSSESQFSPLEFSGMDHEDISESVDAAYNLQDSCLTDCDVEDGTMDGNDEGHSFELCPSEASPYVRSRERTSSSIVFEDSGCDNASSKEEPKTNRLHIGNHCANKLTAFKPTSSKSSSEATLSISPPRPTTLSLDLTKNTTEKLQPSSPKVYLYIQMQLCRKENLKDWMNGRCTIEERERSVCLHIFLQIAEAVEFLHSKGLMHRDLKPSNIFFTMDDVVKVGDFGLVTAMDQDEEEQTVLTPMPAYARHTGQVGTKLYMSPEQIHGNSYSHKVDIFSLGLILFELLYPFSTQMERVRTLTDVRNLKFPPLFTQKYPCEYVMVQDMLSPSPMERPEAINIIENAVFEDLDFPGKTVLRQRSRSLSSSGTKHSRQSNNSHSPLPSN
Sequence of CK1δ (P48730 whole entry): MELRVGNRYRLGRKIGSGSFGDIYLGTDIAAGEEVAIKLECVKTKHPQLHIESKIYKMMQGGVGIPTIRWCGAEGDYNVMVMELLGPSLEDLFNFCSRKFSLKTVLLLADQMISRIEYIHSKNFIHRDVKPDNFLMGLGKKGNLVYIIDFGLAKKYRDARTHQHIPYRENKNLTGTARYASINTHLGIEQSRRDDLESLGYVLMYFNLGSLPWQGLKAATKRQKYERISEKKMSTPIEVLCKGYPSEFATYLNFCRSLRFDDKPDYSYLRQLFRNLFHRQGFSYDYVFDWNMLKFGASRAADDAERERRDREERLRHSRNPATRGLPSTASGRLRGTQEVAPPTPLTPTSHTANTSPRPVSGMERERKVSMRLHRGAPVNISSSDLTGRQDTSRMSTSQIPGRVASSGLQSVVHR
Sequence of HIPK2 (Q9H2X6 whole entry): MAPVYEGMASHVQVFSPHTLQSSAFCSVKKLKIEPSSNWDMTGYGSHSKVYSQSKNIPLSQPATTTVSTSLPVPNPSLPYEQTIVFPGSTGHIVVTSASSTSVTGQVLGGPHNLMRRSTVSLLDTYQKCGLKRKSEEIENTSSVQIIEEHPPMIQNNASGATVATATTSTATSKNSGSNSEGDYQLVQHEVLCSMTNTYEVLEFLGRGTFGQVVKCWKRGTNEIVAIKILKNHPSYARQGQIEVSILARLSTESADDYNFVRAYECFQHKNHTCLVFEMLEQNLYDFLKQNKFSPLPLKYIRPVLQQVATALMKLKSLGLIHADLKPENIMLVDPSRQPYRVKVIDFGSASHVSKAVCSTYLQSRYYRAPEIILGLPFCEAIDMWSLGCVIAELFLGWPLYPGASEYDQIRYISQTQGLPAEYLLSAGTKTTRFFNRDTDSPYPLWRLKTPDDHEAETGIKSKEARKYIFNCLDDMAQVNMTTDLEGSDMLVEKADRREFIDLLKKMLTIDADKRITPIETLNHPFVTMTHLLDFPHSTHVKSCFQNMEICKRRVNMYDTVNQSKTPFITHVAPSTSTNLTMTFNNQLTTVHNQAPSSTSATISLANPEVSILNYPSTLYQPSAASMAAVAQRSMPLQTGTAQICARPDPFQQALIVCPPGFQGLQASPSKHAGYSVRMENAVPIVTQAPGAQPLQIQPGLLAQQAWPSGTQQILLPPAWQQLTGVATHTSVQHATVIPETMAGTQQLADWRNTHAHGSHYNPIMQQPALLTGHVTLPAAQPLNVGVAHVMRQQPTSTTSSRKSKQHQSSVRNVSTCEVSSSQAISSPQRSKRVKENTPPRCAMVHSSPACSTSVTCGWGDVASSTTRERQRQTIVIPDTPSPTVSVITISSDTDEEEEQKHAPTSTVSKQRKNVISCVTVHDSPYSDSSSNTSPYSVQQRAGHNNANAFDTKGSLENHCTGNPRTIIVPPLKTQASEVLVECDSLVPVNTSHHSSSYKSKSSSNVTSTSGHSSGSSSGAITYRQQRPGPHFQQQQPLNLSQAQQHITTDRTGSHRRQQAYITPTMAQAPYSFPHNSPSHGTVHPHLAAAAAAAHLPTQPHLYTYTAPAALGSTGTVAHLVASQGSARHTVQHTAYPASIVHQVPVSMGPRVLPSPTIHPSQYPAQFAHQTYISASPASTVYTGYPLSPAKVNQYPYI
Sequence of TBK1 (Q9UHD2 whole entry): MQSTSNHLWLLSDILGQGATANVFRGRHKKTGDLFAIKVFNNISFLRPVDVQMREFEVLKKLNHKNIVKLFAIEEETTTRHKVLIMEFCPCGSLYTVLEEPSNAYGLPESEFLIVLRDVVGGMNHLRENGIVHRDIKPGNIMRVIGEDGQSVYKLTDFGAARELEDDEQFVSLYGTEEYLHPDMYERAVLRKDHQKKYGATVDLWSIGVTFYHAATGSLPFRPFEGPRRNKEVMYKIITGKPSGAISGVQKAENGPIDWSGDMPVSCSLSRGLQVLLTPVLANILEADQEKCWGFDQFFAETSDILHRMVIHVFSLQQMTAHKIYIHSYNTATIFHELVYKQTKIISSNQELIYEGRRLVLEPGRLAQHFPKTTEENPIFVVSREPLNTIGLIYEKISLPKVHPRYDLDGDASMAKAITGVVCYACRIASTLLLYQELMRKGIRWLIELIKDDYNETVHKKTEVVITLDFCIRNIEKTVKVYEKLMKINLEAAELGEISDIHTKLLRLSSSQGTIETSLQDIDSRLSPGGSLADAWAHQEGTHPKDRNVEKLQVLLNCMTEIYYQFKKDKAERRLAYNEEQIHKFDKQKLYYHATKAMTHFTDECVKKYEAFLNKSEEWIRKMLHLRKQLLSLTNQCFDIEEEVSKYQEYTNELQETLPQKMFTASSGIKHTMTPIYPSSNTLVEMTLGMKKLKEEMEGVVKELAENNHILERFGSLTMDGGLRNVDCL
Text for Aurora B: (§1) filter binding assay using 33P-g-ATPat the MRC PPU International Centre for Kinase Profiling, University of
Text for CDK2-Cyclin A: as §1
Text for CHK1: as §1
Text for CK1δ: as §1
Text for EIF2AK3: as §1
Text for EPH-A2: as §1
Text for EPH-B1: as §1
Text for EPH-B4: as §1
Text for ERK2: as §1
Text for GCK: as §1
Text for HIPK2: as §1
Text for HIPK3: as §1
Text for JNK1: as §1
Text for MAP4K5: as §1
Text for PIM3: as §1
Text for PKBb: as §1
Text for PKCγ: as §1
Text for TBK1: as §1
Kinase % activity remaining s.d.
Text for ULK1: as §1

As for `CC(C)c1ccccc1-c1nc(NCc2ccccn2)c2c(ccn2C)n1` [Compound 40], the remaining activity at 10 µM at EIF2AK3 turned out to be 103%; at CK1δ, 100%; on HIPK2, 114%; at CDK2-Cyclin A, 103%; on TBK1 it was 93%; on CHK1 it was 96%. Besides, the remaining activity at 10 µM came to 75% on PKBb; 93% on GCK; 113% at Aurora B; 87% at PIM3; 120% on EPH-B4; 98% at ERK2. Besides, the remaining activity at 10 µM was 92% at HIPK3; 86% on JNK1; 123% on MAPKAP-K2; 77% on PKCγ; 95% on EPH-B1; 112% at MAP4K5. Also, the remaining activity at 10 µM on ULK1 turned out to be 111%; at EPH-A2 it was 104%.
